What was measured:
[1] = molecular target: T1, Arabidopsis thaliana αDOX (SEQ ID NO: 3), fatty acid alpha-dioxygenase, Q9SGH6, variant with N-terminal His-tag, MBP tag and TEV site SEQ ID NO: 253 (Arabidopsis thaliana, UniProt Q9SGH6); assay: Alpha-dioxygenase activity assay (oxygen consumption, TON); assay type: biochemical; settings: fatty acid 100 µM, enzyme 6 ppm, 50 mM HEPES pH 9.0, 37°C; initial rate of oxygen consumption / enzyme concentration
T1 construct: His-tag (N); MBP tag (N); TEV protease cleavage site (N); made in house; host or cells: Escherichia coli BL21 (DE3), modified pET28a
T1 sequence (Q9SGH6 1-639): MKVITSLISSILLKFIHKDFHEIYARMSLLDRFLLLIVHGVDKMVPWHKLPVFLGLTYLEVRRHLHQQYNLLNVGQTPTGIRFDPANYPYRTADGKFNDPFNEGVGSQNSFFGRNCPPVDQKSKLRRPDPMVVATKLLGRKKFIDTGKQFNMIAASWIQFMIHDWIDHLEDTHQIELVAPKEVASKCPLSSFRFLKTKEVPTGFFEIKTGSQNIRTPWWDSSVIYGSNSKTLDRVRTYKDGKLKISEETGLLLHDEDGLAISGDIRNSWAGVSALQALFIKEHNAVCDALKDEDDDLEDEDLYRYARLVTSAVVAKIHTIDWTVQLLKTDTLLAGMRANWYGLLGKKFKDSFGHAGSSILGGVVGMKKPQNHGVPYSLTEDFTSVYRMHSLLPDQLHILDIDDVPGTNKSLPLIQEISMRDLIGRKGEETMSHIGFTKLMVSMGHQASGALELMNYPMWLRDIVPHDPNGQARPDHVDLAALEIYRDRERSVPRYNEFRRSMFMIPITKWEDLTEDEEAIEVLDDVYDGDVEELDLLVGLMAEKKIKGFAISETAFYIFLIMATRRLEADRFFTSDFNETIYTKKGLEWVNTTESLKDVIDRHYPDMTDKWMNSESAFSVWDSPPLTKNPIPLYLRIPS
Text: Arabidopsis thaliana αDOX (SEQ ID NO: 3) is a fatty acid alpha-dioxygenase that converts fatty acids into the corresponding 2-hydroperoxy fatty acids and is included as an example of the present invention. A codon optimized gene (SEQ ID NO: 252) encoding for an alpha-dioxygenase variant was designed and synthesized by Genscript. After synthesis, the gene was cloned into a modified version of pET28a, such as the final plasmid encoded for a αDOX variant including an N-terminal amino acid sequence containing a His-tag, an MBP tag, and a TEV protease cleavage site (SEQ ID NO: 253). For heterologous expression, Escherichia coli BL21 (DE3) cells were transformed with the recombinant plasmid and a single colony was inoculated into LB medium containing kanamycin (50 mg/L). A pre-starter culture was then inoculated into flasks containing TB Media supplemented with kanamycin (50 mg/L) and incubated at 37 °C. At an OD600nm about 4, IPTG (final concentration 0.1 mM) and 5-aminolevulinic acid (final concentration 0.5 mM) were added to the culture and further incubated at 16 °C for 16 h. Cells were harvested by centrifugation and the pellet was lysed. After centrifugation, the supernatant was collected, and the protein was purified by one-step purification using Ni-NTA affinity chromatography and standard protocols known in the art. The protein was stored in 1×PBS buffer containing 10% Glycerol and at pH 7.4. The purified enzyme was stored at -80 °C until use.
Reactions with alpha-dioxygenases were performed as follows. An aliquot of fatty acid in ethanol (final concentration 100 µM) was resuspended in buffer (50 mM HEPES at pH 9.0) in a scintillation vial. The reaction was started by addition of enzyme (final concentration 6 ppm). The reaction was incubated for up to 10 minutes at 37°C with 200 rpm agitation and the conversion was monitored using an oxygen sensor. The TON (in s-1) were calculated as the ratio between the initial rate of oxygen consumption (in µM/s) and the concentration of enzyme (in µM). […]

[2] = system: Solanum lycopersicum αDOX (SEQ ID NO: 8), fatty acid alpha-dioxygenase, Q5WM33, N-terminal His-tag variant SEQ ID NO: 263 (comparative); assay: as above; assay type: biochemical; settings: fatty acid 100 µM, enzyme 6 ppm, 50 mM HEPES pH 9.0, 37°C; initial rate of oxygen consumption / enzyme concentration
Text: Solanum lycopersicum αDOX (SEQ ID NO: 8) is a fatty acid alpha-dioxygenase that converts fatty acids into the corresponding 2-hydroperoxy fatty acids and is included as a comparative example of the present invention. A codon optimized gene (SEQ ID NO: 262) encoding for an alpha-dioxygenase variant (SEQ ID NO: 263), including an N-terminal amino acid sequence containing a His-tag was designed and synthesized by Genscript. After gene synthesis, the protein was expressed and purified. In brief, the complete synthetic gene sequence was subcloned into a pET30a vector using the NdeI/HindIII cloning sites. For heterologous expression, Escherichia coli BL21 (DE3) cells were transformed with the recombinant plasmid and a single colony was inoculated into LB medium containing kanamycin (50 mg/L). A pre-starter culture was then inoculated into flasks containing Magic Media (Thermo Fisher, Catalog # K6803) supplemented with kanamycin (50 mg/L) and incubated at 16 °C for 72 h. At an OD600nm = 0.5 - 1.0, 5-aminolevulinic acid (final concentration 0.5 mM) was added. Cells were harvested by centrifugation at 5000 rpm and 4°C and the pellet was lysed using a bacterial cell lysis buffer (B-PER - Themo Fisher, Waltham, MA). After centrifugation, the supernatant was collected, and the protein was purified by one-step purification using HisPur™ Ni-NTA Spin Columns (Thermo Scientific, Catalog # 88226) and standard protocols known in the art. The protein was concentrated using a 10 kDa MW cutoff Amicon Ultra centrifugal filter unit (Millipore Sigma, Catalog# UFC901024), followed by desalting using a disposable PD-10 desalting column (GE Healthcare Life Sciences, Catalog# 17085101) and a buffer containing 50 mM Tris-HCl, 500 mM NaCl, and 10% Glycerol at pH 8.0. […]
Reactions with alpha-dioxygenases were performed as follows. […] The reaction was incubated for up to 10 minutes at 37°C with 200 rpm agitation and the conversion was monitored using an oxygen sensor. The TON (in s-1) were calculated as the ratio between the initial rate of oxygen consumption (in µM/s) and the concentration of enzyme (in µM). […]

## CCCCCCCC/C=C\CCCCCCCC(=O)O [Oleic Acid]
[1]
  Oleic Acid, TON: 0.14 s⁻¹
[2]
  Oleic Acid, TON: 0.00 s⁻¹

## CCCCCCCCCCCCCCCC(=O)O [Palmitic Acid]
[1]
  Palmitic Acid, TON: 1.01 s⁻¹
[2]
  Palmitic Acid, TON: 0.00 s⁻¹

## CCCCCCCCCCCCCCCCCC(=O)O [Stearic Acid]
[1]
  Stearic Acid, TON: 0.47 s⁻¹
[2]
  Stearic Acid, TON: 0.12 s⁻¹

Reference: patent publication EP3981864A1, “DETERGENT COMPOSITION” (priority 2020, dated 2022)
